Laboratory results reported in patent publication US11419918B2, “Treatment of biliary cirrhosis based on oxyntomodulin analogue GLP-1R/GCGR dual-target agonist peptide” (Shenzhen Turier Biotech Co., Ltd., priority 2017, dated 2022).
Numbered stars: 1 amine (or outer) side, 2 acyl side, 3 side chain; on linkers, the order of the positions; unused ones are H or OH. Square brackets hold non-standard residues; d marks the D form. Primed or numbered codes have the meaning given here. Side chains are listed from the residue outwards. Ends that are not written are not given here. * marks the point of attachment. C18 diacid = O=C(O)CCCCCCCCCCCCCCCCC(=O)*; γGlu = O=C(O)[C@H](CCC(=O)[*:2])N[*:1]; Stearoyl = CCCCCCCCCCCCCCCCCC(=O)*; Palmitoyl = CCCCCCCCCCCCCCCC(=O)*; Nle = CCCC[C@H](N)C(=O)O; PEG2′ = not defined here; Aib = CC(C)(N)C(=O)O

Tests used:
[1] = tested on: BDL-induced cholestasis hepatic fibrosis in rats; test: Bile duct ligation (BDL)-induced hepatic fibrosis in rats (biliary cirrhosis rat model); assay type: in vivo, SD rats; settings: 50 μg/kg subcutaneous every two days, 14 days
Procedure: 1. Experimental Drugs: polypeptide compounds 3, 6, 7, 10, 17, 20, 37, 38, 39, 40, 44, 46, Obeticholic Acid (Abbr. OCA, CAS:459789-99-2, purchased from Zhejiang Warrant Pharmaceutical Co., Ltd.) and Liraglutide. Saving condition was −20° C.
128 male SD rats with body weight of 200-230 g were randomly divided into sixteen groups, which were respectively:
SD rats with body weight of 200-230 g at SPF level were provided by Lanzhou University Laboratory Animal Center. After rats were quarantined in the room (SPF environment) for one week, model rat and rat in sham-operated group were subject to intraperitoneal injection and anesthesia with 0.6% pentobarbital sodium solution, and operation was performed on a super clean bench after anesthesia. Bilateral ligation was conducted on model rat after the common bile duct was separated, and ligation was not conducted on rat in sham-operated group, but only the common bile duct was separated. Administration was started from the next day of the operation.
Administration was started from the first day of the operation, and subcutaneous injection of compounds 3, 6, 7, 10, 17, 20, 37, 38, 39, 40, 44, 46 and Liraglutide with 50 μg/kg was performed every two days; intraperitoneal injection for the Obeticholic Acid administration group with 7.5 mg/kg was performed every day; as for the normal saline group, injection was performed every day. During the administration, changes in vital signs of rats were observed every day.
After the end of two weeks of administration cycle (14 days), the rats were killed to collect materials for subsequent biological determination experiments. The livers were taken out for HE dye, Sirius Red dye and IHC dye. Image-pro plus and Graph pad software were used for statistics.

[2] = tested on: human hepatic stellate cells (LX-2); test: In vitro inhibition of hepatic fibrosis: expression of activation marker α-SMA in LX-2 cells (Western Blot, β-actin internal reference); assay type: cell-based; settings: 10.0 μM, 48 hours, negative control (PBS) = 100%
Procedure: Hepatic stellate cell strain LX-2 was selected to study and observe the effect of different doses of test substances on the expression of LX-2 cell activation marker α-SMA. Hepatic stellate cell LX-2 was laid on 35 mm cell culture plate, cultured with DMEM (high glucose)+10% FBS+1% double-antibody culture medium (Thermo Fisher), placed overnight when the cells grew to 70% convergence at 37° C. and under the condition of 5% CO2, and treated with the above GLP-1R/GCGR dual target agonist polypeptides 1-48 (dissolved in PBS) for 48 hours the next day morning to extract cell protein, carry out Western Blot, and take β-actin as internal reference and analyze the expression quantities of α-SMA and β-actin by a gray level of Image J 1.50i. PBS with the same volume as that in experimental group was added in negative control. […] The integrating gray level of α-SMA/β-actin in the negative control group was 100% to analyze the in vitro inhibition activity of hepatic fibrosis of tested polypeptide.

Substance: His-(D-Ser)-Gln-Gly-Thr-Phe-Thr-Ser-Asp-Lys(PEG2-PEG2-CO(CH2)14CH3)-Ser-Lys-Tyr-Leu-Asp-Aib-Arg-Arg-Ala-Gln-Asp-Phe-Val-Gln-Trp-Leu-Leu-Asn-Thr-Gly-Gly-Pro-Ser-Ser-Gly-Ala-Pro-Pro-Pro-Ser-NH2 (H[dS]QGTFTSDK([PEG2′-PEG2′-Palmitoyl])SKYLD[Aib]RRAQDFVQWLLNTGGPSSGAPPPS-NH2) [Compound 44]
- ALT in the serum (FIG. 6) [1]: significantly inhibit
- BDL-induced hepatic fibrosis and inflammation (HE, Sirius Red, IHC sections) [1]: significantly reduce
- collagenous fiber deposition in liver (Sirius Red dyed sections, FIGS. 2, 4) [1]: significantly inhibit
- content of hydroxyproline of the liver (FIG. 7) [1]: significantly inhibit
- α-SMA in liver (IHC dyed sections, FIGS. 3, 5) [1]: significantly inhibit
- Relative expression of α-SMA (α-SMA/β-actin, %) [2]: 39.19%

Substance: His-(D-Ser)-Gln-Gly-Thr-Phe-Thr-Ser-Asp-Lys(PEG2-PEG2-CO(CH2)16CO2H-Ser-Lys-Tyr-Leu-Asp-Aib-Arg-Arg-Ala-Gln-Asp-Phe-Val-Gln-Trp-Leu-Nle-Asn-Thr-Gly-Gly-Pro-Ser-Ser-Gly-Ala-Pro-Pro-Pro-Ser-NH2 (H[dS]QGTFTSDK([PEG2′-PEG2′-C18 diacid])SKYLD[Aib]RRAQDFVQWL[Nle]NTGGPSSGAPPPS-NH2) [Compound 46]
- ALT in the serum (FIG. 6) [1]: significantly inhibit
- BDL-induced hepatic fibrosis and inflammation (HE, Sirius Red, IHC sections) [1]: significantly reduce
- collagenous fiber deposition in liver (Sirius Red dyed sections, FIGS. 2, 4) [1]: significantly inhibit
- content of hydroxyproline of the liver (FIG. 7) [1]: significantly inhibit
- α-SMA in liver (IHC dyed sections, FIGS. 3, 5) [1]: significantly inhibit
- Relative expression of α-SMA (α-SMA/β-actin, %) [2]: 36.84%

Substance: His-(D-Ser)-Gln-Gly-Thr-Phe-Thr-Ser-Asp-Tyr-Ser-Lys(PEG2-PEG2-CO(CH2)16CH3)-Lys-Leu-Asp-Aib-Arg-Arg-Ala-Gln-Asp-Phe-Val-Gln-Trp-Leu-Met-Asn-Thr-Gly-Gly-Pro-Ser-Ser-Gly-Ala-Pro-Pro-Pro-Ser-NH2 (H[dS]QGTFTSDYSK([PEG2′-PEG2′-Stearoyl])KLD[Aib]RRAQDFVQWLMNTGGPSSGAPPPS-NH2) [Compound 3]
- ALT in the serum (FIG. 6) [1]: significantly inhibit
- BDL-induced hepatic fibrosis and inflammation (HE, Sirius Red, IHC sections) [1]: significantly reduce
- collagenous fiber deposition in liver (Sirius Red dyed sections, FIGS. 2, 4) [1]: significantly inhibit
- content of hydroxyproline of the liver (FIG. 7) [1]: significantly inhibit
- α-SMA in liver (IHC dyed sections, FIGS. 3, 5) [1]: significantly inhibit
- Relative expression of α-SMA (α-SMA/β-actin, %) [2]: 32.25%

Substance: His-Aib-Gln-Gly-Thr-Phe-Thr-Ser-Asp-Lys(PEG2-PEG2-γGlu-CO(CH2)16CH3)-Ser-Lys-Tyr-Leu-Asp-Glu-Arg-Arg-Ala-Gln-Asp-Phe-Val-Gln-Trp-Leu-Leu-Asp-Gly-Gly-Pro-Ser-Ser-Gly-Ala-Pro-Pro-Pro-Ser-NH2 (H[Aib]QGTFTSDK([PEG2′-PEG2′-γGlu-Stearoyl])SKYLDERRAQDFVQWLLDGGPSSGAPPPS-NH2) [Compound 14]
- Relative expression of α-SMA (α-SMA/β-actin, %) [2]: 42.80%

Substance: His-Aib-Gln-Gly-Thr-Phe-Thr-Ser-Asp-Lys(PEG2-PEG2-γGlu-CO(CH2)16CO2H)-Ser-Lys-Tyr-Leu-Asp-Aib-Arg-Arg-Ala-Gln-Asp-Phe-Val-Gln-Trp-Leu-Leu-Asp-Gly-Gly-Pro-Ser-Ser-Gly-Ala-Pro-Pro-Pro-Ser-NH2 (H[Aib]QGTFTSDK([PEG2′-PEG2′-γGlu-C18 diacid])SKYLD[Aib]RRAQDFVQWLLDGGPSSGAPPPS-NH2) [Compound 19]
- Relative expression of α-SMA (α-SMA/β-actin, %) [2]: 39.75%

Substance: His-Aib-Gln-Gly-Thr-Phe-Thr-Ser-Asp-Lys(PEG2-PEG2-γGlu-CO(CH2)16CO2H)-Ser-Lys-Tyr-Leu-Asp-Glu-Arg-Arg-Ala-Gln-Asp-Phe-Val-Gln-Trp-Leu-Leu-Asp-Gly-Gly-Pro-Ser-Ser-Gly-Ala-Pro-Pro-Pro-Ser-NH2 (H[Aib]QGTFTSDK([PEG2′-PEG2′-γGlu-C18 diacid])SKYLDERRAQDFVQWLLDGGPSSGAPPPS-NH2) [Compound 15]
- Relative expression of α-SMA (α-SMA/β-actin, %) [2]: 57.29%
